Source: patent EP1561465A2, “Methods of use of fluoroquinolone compounds against bacteria” (LG Life Sciences, Ltd., priority 1999, dated 2001)
Values after ≈ are worked out from the molar mass of the structure shown. Values joined by “and” are separate entries in the source; they are usually repeats but may differ in a detail not shown here. Equal entries are not always repeated. Where two headings read alike, the source gives them in different places.

How the values were obtained:
Type in all cases: cell-based
[1] = system: Enterococcus gallinarum; test: MIC by NCCLS broth microdilution, 1100 Japanese clinical isolates 1997-1998; conditions: Enterococcus gallinarum, GALLINARUM, Enterococcus gallinarum (vanC1), read-out: MIC
[2] = system: Enterococcus faecium; test: as above; conditions: for MIC: Enterococcus faecium
[3] = system: Staphylococcus epidermidis; test: as above; conditions: for MIC50 / MIC90: Staphylococcus epidermidis
[4] = system: Citrobacter freundii; test: as above; conditions: Citrobacter freundii (n=39)
[5] = system: Haemophilus influenzae; test: MIC by two-fold serial agar dilution, Sensitivity Disk agar-N (Kitasato isolates); conditions: Haemophilus influenzae (24)
[6] = system: Moraxella catarrhalis; test: as above; conditions: Moraxella catarrhalis (22)
[7] = system: Klebsiella pneumoniae; test: MIC by NCCLS broth microdilution, 1100 Japanese clinical isolates 1997-1998; conditions: Klebsiella pneumoniae (n=35)
[8] = system: Gram negative anaerobic pathogens and facultative anaerobic pathogens; test: MIC by agar dilution, Brucella HK agar with 5% laked sheep blood, anaerobic reference strains
[9] = system: Serratia marcescens; test: MIC by NCCLS broth microdilution, 1100 Japanese clinical isolates 1997-1998; conditions: Serratia marcescens (n=30)
[10] = system: Enterococcus faecalis; test: as above; conditions: for MIC50 / MIC90: Enterococcus faecalis; for MIC90: read-out: MIC90
[11] = system: Klebsiella pneumoniae; test: MIC by agar dilution (NCCLS), 322 nosocomial Gram negative isolates, Athens 1998; conditions: n = 56 isolates
[12] = system: Enterobacter spp.; test: as above; conditions: Enterobacter, n = 57 isolates
[13] = system: Pseudomonas aeruginosa; test: as above; conditions: n = 57 isolates
[14] = system: Aeromonas spp.; test: MIC by agar dilution (NCCLS M7-A4), 288 enteropathogenic isolates, gemifloxacin and 15 other antimicrobials; conditions: Aeromonas spp. N= 16
[15] = system: Streptococcus pneumoniae and Haemophilus influenzae; test: MIC by broth microdilution (NCCLS), all isolates pooled
[16] = system: Acinetobacter spp.; test: MIC by agar dilution (NCCLS), 322 nosocomial Gram negative isolates, Athens 1998; conditions: n = 38 strains
[17] = system: Shigella spp.; test: MIC by agar dilution (NCCLS M7-A4), 288 enteropathogenic isolates, eight quinolones; conditions: Shigella spp. (n = 21)
[18] = system: Proteus mirabilis; test: MIC by agar dilution (NCCLS), 322 nosocomial Gram negative isolates, Athens 1998; conditions: Proteus mirabilis; n = 57 isolates
[19] = system: Staphylococcus aureus; test: MIC by agar macrodilution (NCCLS), 373 Gram positive isolates, Athens 1998; conditions: Methicillin-susceptible Staphylococcus aureus (n = 85)
[20] = Staphylococcus epidermidis oxacillin resistant (n=43)
[21] = Staphylococcus epidermidis oxacillin susceptible (n=35)
[22] = Enterococcus faecalis ciprofloxacin resistant (n=15)
[23] = Enterococcus faecalis ciprofloxacin susceptible (n=24)

C[C@@H]1CN(c2c(F)c(N)c3c(=O)c(C(=O)O)cn(C4CC4)c3c2F)C[C@H](C)N1 [Sparfloxacin, sparfloxacin]
MIC ([1]; strain TMS1): 0.25 µg/mL (≈ 0.637 µM)
MIC ([1]; strain TMS2): 0.5 µg/mL (≈ 1.27 µM)
MIC ([1]; strain TMS3): 0.5 µg/mL (≈ 1.27 µM)
MIC ([1]; strain TMS4): 0.25 µg/mL (≈ 0.637 µM)
MIC50 ([2]; Enterococcus faecium (n=39)): 32 µg/mL (≈ 81.5 µM)
MIC90 ([2]; Enterococcus faecium (n=39)): 64 µg/mL (≈ 163 µM)
MIC Range ([2]; Enterococcus faecium (n=39)): 0.5 to 128 µg/mL
MIC ([2]; Enterococcus faecium (vanA) vancomycin resistant, strain TMS1): 32 µg/mL (≈ 81.5 µM)
MIC ([2]; Enterococcus faecium (vanA) vancomycin resistant, strain TMS2): 0.5 µg/mL (≈ 1.27 µM)
MIC ([2]; Enterococcus faecium (vanA) vancomycin resistant, strain TMS3): 64 µg/mL (≈ 163 µM)
MIC ([2]; Enterococcus faecium (vanA) vancomycin resistant, strain TMS4): 64 µg/mL (≈ 163 µM)
MIC ([2]; Enterococcus faecium (vanA) vancomycin resistant, strain TMS5): 2 µg/mL (≈ 5.1 µM)
MIC ([2]; Enterococcus laecium (van B) vancomycin resistant, strain TMS6): 64 µg/mL (≈ 163 µM)
MIC ([2]; Enterococcus laecium (van B) vancomycin resistant, strain TMS7): 32 µg/mL (≈ 81.5 µM)
MIC Range [3, 20]: 0.032 to 16 µg/mL
MIC Range [3, 21]: 0.032 to 8 µg/mL
MIC50 [3, 20]: 4 µg/mL (≈ 10.2 µM)
MIC90 [3, 20]: 8 µg/mL (≈ 20.4 µM)
MIC50 [3, 21]: 0.063 µg/mL (≈ 0.161 µM)
MIC90 [3, 21]: 4 µg/mL (≈ 10.2 µM)
MIC90 [4]: 2 µg/mL (≈ 5.1 µM)
MIC Range [4]: 0.016 to 4 µg/mL
MIC50 ([4]; read-out: MIC50): 0.25 µg/mL (≈ 0.637 µM)
MIC50 [5]: 0.016 µg/mL (≈ 0.0408 µM)
MIC90 [5]: 0.031 µg/mL (≈ 0.079 µM)
MIC Range [5]: ≤0.004 to 0.063 µg/mL
MIC50 [6]: 0.016 µg/mL (≈ 0.0408 µM)
MIC90 [6]: 0.031 µg/mL (≈ 0.079 µM)
MIC Range [6]: 0.016 to 0.031 µg/mL
MIC50 [7]: 0.032 µg/mL (≈ 0.0815 µM)
MIC Range [7]: 0.016 to 2 µg/mL
MIC90 ([7]; read-out: MIC90): 0.063 µg/mL (≈ 0.161 µM)
MIC [8]: 2 µg/mL and 0.125 µg/mL
MIC ([8]; Bacteroides eggerthii, ATCC27754, Bacteroides eggerthii ATCC27754, read-out: MIC): 4 µg/mL (≈ 10.2 µM)
MIC ([8]; Bacteroides fragilis, ATCC25285, Bacteroides fragilis ATCC25285, read-out: MIC): 1 µg/mL (≈ 2.55 µM)
MIC ([8]; Bacteroides fragilis, Bacteroides fragilis GA15562, read-out: MIC): 1 µg/mL (≈ 2.55 µM)
MIC ([8]; Bacteroides fragilis, Bacteroides fragilis GA-I0558, read-out: MIC): 1 µg/mL (≈ 2.55 µM)
MIC ([8]; Bacteroides fragilis, Bacteroides fragilis GA-I7955, read-out: MIC): 1 µg/mL (≈ 2.55 µM)
MIC ([8]; Bacteroides fragilis, Bacteroides fragilis GAI10150, read-out: MIC): 1 µg/mL (≈ 2.55 µM)
MIC ([8]; Bacteroides fragilis, Bacteroides fragilis GAI30079, read-out: MIC): 2 µg/mL (≈ 5.1 µM)
MIC ([8]; Bacteroides fragilis, Bacteroides fragilis GAI30144, read-out: MIC): 1 µg/mL (≈ 2.55 µM)
MIC ([8]; Bacteroides fragilis, NCTC10581, Bacteroides fragilis NCTC10581, read-out: MIC): 1 µg/mL (≈ 2.55 µM)
MIC ([8]; Bacteroides ovatus, ATCC8483, Bacteroides ovatus ATCC8483, read-out: MIC): 2 µg/mL (≈ 5.1 µM)
MIC ([8]; Bacteroides thetaiotaomicron, ATCC29741, Bacteroides thetaiotaomicron ATCC29741, read-out: MIC): 2 µg/mL (≈ 5.1 µM)
MIC ([8]; Bacteroides uniformis, ATCC8492, Bacteroides uniformis ATCC8492, read-out: MIC): 1 µg/mL (≈ 2.55 µM)
MIC ([8]; Bilophilla wadsworthia WAL7959, read-out: MIC): 0.5 µg/mL (≈ 1.27 µM)
MIC ([8]; Campylobacter gracilis, JCM8538, Campylobacter gracilis JCM8538, read-out: MIC): ≤ 0.03 µg/mL
MIC ([8]; Campylobacter ureolyticus, NCTC10941, Bacteroides ureolyticus NCTC10941, read-out: MIC): 0.06 µg/mL (≈ 0.153 µM)
MIC ([8]; Capnocytophaga ochracea, Capnocytophaga ochracea GAI5586, read-out: MIC): ≤ 0.03 µg/mL
MIC ([8]; Desullomonas pigra DSM749, read-out: MIC): 0.06 µg/mL (≈ 0.153 µM)
MIC ([8]; Fusobacterium necrophorum, ATCC25286, Fusobacterium necrophorum ATCC25286, read-out: MIC): 1 µg/mL (≈ 2.55 µM)
MIC ([8]; Fusobacterium nucleatum, ATCC25586, Fusobacterium nucleatum ATCC25586, read-out: MIC): 1 µg/mL (≈ 2.55 µM)
MIC ([8]; Fusobacterium varium, ATCC8501, Fusobacterium varium ATCC8501, read-out: MIC): 8 µg/mL (≈ 20.4 µM)
MIC ([8]; Hoylesella oralis, ATCC33269, Prevotella oralis ATCC33269, read-out: MIC): 4 µg/mL (≈ 10.2 µM)
MIC ([8]; Parabacteroides distasonis, ATCC8503, Bacteroides distasonis ATCC8503, read-out: MIC): 2 µg/mL (≈ 5.1 µM)
MIC ([8]; Phocaeicola vulgatus, ATCC8482, Bacteroides vulgatus ATCC8482, read-out: MIC): 2 µg/mL (≈ 5.1 µM)
MIC ([8]; Porphyromonas asaccharolytica, ATCC25260, Porphyromonas asaccharolytica ATCC25260, read-out: MIC): 0.25 µg/mL (≈ 0.637 µM)
MIC ([8]; Prevotella bivia, ATCC29303, Prevotella bivia ATCC29303, read-out: MIC): 8 µg/mL (≈ 20.4 µM)
MIC ([8]; Prevotella buccaeATCC33574, read-out: MIC): 2 µg/mL (≈ 5.1 µM)
MIC ([8]; Prevotella corporis, Prevotella corporis GAI91000, read-out: MIC): 2 µg/mL (≈ 5.1 µM)
MIC ([8]; Prevotella heparinolytica, ATCC35895, Prevotella heparinolytica ATCC35895, read-out: MIC): 0.5 µg/mL (≈ 1.27 µM)
MIC ([8]; Prevotella melaninogenica, Prevotella melaninogenica GAI5490, read-out: MIC): 2 µg/mL (≈ 5.1 µM)
MIC ([8]; Segatella oris, ATCC33573, Prevotella oris ATCC33573, read-out: MIC): 2 µg/mL (≈ 5.1 µM)
MIC ([8]; Sutterella wadsworthensis, ATCC51579, Sutterella wadsworthensis ATCC51579, read-out: MIC): 0.25 µg/mL (≈ 0.637 µM)
MIC ([8]; Veillonella dispar, ATCC17748): 0.125 µg/mL (≈ 0.319 µM)
MIC ([8]; Veillonella parvula, ATCC10790, Veillonella parvula ATCC10790, read-out: MIC): 0.25 µg/mL (≈ 0.637 µM)
MIC90 [9]: 2 µg/mL (≈ 5.1 µM)
MIC Range [9]: 0.063 to 64 µg/mL
MIC50 ([9]; read-out: MIC50): 0.25 µg/mL (≈ 0.637 µM)
MIC Range [10, 22]: 0.5 to 64 µg/mL
MIC Range [10, 23]: 0.5 to 1 µg/mL
MIC50 [10, 22]: 16 µg/mL (≈ 40.8 µM)
MIC90 [10, 22]: 64 µg/mL (≈ 163 µM)
MIC50 [10, 23]: 0.5 µg/mL (≈ 1.27 µM)
MIC90 [10, 23]: 1 µg/mL (≈ 2.55 µM)

Cc1c(F)c(N2CCNC(C)C2)cc2c1c(=O)c(C(=O)O)cn2C1CC1 (stereo not drawn) [Grepafloxacin, grepafloxacin]
MIC50 ([11]; Klebsiella pneumoniae): 0.125 µg/mL (≈ 0.348 µM)
MIC90 ([11]; Klebsiella pneumoniae): 1 µg/mL (≈ 2.78 µM)
MIC Range [11]: ≤0.03 to 64 µg/mL
MIC50 ([12]; read-out: MIC50): 0.06 µg/mL (≈ 0.167 µM)
MIC90 ([12]; read-out: MIC90): > 64 µg/mL
MIC50 [13]: 1 µg/mL (≈ 2.78 µM)
MIC90 [13]: > 64 µg/mL
MIC (mg/L) Range [14]: ≤0.015 to 0.12 mg/L
MIC ([14]; read-out: MIC (mg/L) 50%): 0.03 mg/L (≈ 0.0835 µM)
MIC ([14]; read-out: MIC (mg/L) 90%): 0.06 mg/L (≈ 0.167 µM)
MIC90 ([15]; all (380) isolates tested (235 S. pneumoniae, 145 H. influenzae)): 0.12 µg/mL (≈ 0.334 µM)
MIC90 ([15]; all isolates tested (602)): 0.12 µg/mL (≈ 0.334 µM)
MIC50 ([16]; Acinetobacter): 2 µg/mL (≈ 5.56 µM)
MIC90 ([16]; Acinetobacter): 64 µg/mL (≈ 178 µM)
MIC Range [16]: ≤0.03 to 64 µg/mL
% Susceptible [17]: 100%
MIC50 [17]: ≤ 0.015 µg/mL
MIC90 [17]: 0.03 µg/mL (≈ 0.0835 µM)
MIC Range [17]: ≤0.015 to 0.03 µg/mL
MIC50 [18]: 0.5 µg/mL (≈ 1.39 µM)
MIC90 [18]: 16 µg/mL (≈ 44.5 µM)
MIC Range [19]: 0.06 to 32 µg/mL
MIC50 ([19]; read-out: MIC50): 0.125 µg/mL (≈ 0.348 µM)
MIC90 ([19]; read-out: MIC90): 0.25 µg/mL (≈ 0.696 µM)
